The values below come from patent US12290511B2, “Pharmaceutical preparation containing pyridyl aminoacetic acid compound” (Santen Pharmaceutical Co., Ltd., priority 2017, dated 2025).

In this assay the test system is patients with primary open angle glaucoma or ocular hypertension resistant to treatment with latanoprost ophthalmic solution. As to the kind of experiment: Clinical test: 0.002% (w/v) omidenepag isopropyl eye drop A in patients resistant to latanoprost ophthalmic solution. The assay is classed as in vivo, humans. The protocol: Examination was conducted on the efficacy of omidenepag isopropyl on patients with inadequate efficacies of other glaucoma or ocular hypertension therapeutic agents.
Omidenepag isopropyl, polyoxyl 35 castor oil, glycerin, citric acid, sodium citrate, sodium edetate, and benzalkonium chloride were dissolved into purified water to adjust the pH. Thereafter, purified water was added to adjust the total volume, thereby preparing a 0.002% (w/v) omidenepag isopropyl eye drop A.
Patients with primary open angle glaucoma or ocular hypertension were subjected to a washout period of 1 to 4 weeks, and then received a binocular instillation of 0.005% latanoprost ophthalmic solution in an amount of 1 drop once a day for 8 weeks as an induction phase (week −8 to baseline). The patients with primary open angle glaucoma (21 humans) or ocular hypertension (5 humans) resistant to treatment with latanoprost ophthalmic solution, whose rate of decrease in intraocular pressure from the start of instillation was 15% or less at the end of the induction phase, entered the treatment phase (baseline to week 4), and received a binocular instillation of the above-described 0.002% (w/v) omidenepag isopropyl eye drop A in an amount of 1 drop (about 0.03 mL) once a day for 4 weeks every day.

Regarding `CC(C)OC(=O)CNc1cccc(CN(Cc2ccc(-n3cccn3)cc2)S(=O)(=O)c2cccnc2)n1` [omidenepag isopropyl, isopropyl (6-{[4-(pyrazol-1-yl)benzyl](pyridin-3-ylsulfonyl)aminomethyl}pyridin-2-ylamino)acetate], the “intraocular pressure lowering compared with latanoprost instillation” value is “lowers intraocular pressure to a greater extent than latanoprost instillation”.
